Test results: patent publication US12180187B2, “1-phenyl-5-azinylpyrazolyl-3-oxyalkyl acids and their use for controlling unwanted plant growth” (BAYER AKTIENGESELLSCHAFT, priority 2019, dated 2024)

Legend:
ALOMY [1] = test: Pre-emergence action against ALOMY, 1280 g/ha; assay type: in vivo, Alopecurus myosuroides; conditions: visual scoring after about 3 weeks vs untreated controls, 100% = plants have died, 0% = like control plants
Outline: (§1)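 Activity was scored visually as percent versus untreated controls about 3 weeks after treatment (100% = dead plants, 0% = control-like). Compounds, formulated as wettable powders or emulsion concentrates, were sprayed onto the covering soil over freshly sown seeds in sandy loam, with 0.5% additive and 600 L/ha water.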

DIGSA [2] = test: Pre-emergence action against DIGSA, 1280 g/ha; assay type: in vivo, Digitaria sanguinalis; conditions: visual scoring after about 3 weeks vs untreated controls, 100% = plants have died, 0% = like control plants
Outline: as §1

ECHCG [3] = test: Pre-emergence action against ECHCG, 1280 g/ha; assay type: in vivo, Echinochloa crus-galli; conditions: visual scoring after about 3 weeks vs untreated controls, 100% = plants have died, 0% = like control plants
Outline: as §1

LOLRI [4] = test: Pre-emergence action against LOLRI, 1280 g/ha; assay type: in vivo, Lolium rigidum; conditions: visual scoring after about 3 weeks vs untreated controls, 100% = plants have died, 0% = like control plants
Outline: as §1

POAAN [5] = test: Pre-emergence action against POAAN, 1280 g/ha; assay type: in vivo, Poa annua; conditions: visual scoring after about 3 weeks vs untreated controls, 100% = plants have died, 0% = like control plants
Outline: as §1

SETVI [6] = test: Pre-emergence action against SETVI, 1280 g/ha; assay type: in vivo, Setaria viridis; conditions: visual scoring after about 3 weeks vs untreated controls, 100% = plants have died, 0% = like control plants
Outline: as §1

AMARE [7] = test: Pre-emergence action against AMARE, 1280 g/ha; assay type: in vivo, Amaranthus retroflexus; conditions: scored visually after about 3 weeks vs untreated controls (100% = plants have died)
Outline: as §1

KCHSC [8] = test: Pre-emergence action against KCHSC, 1280 g/ha; assay type: in vivo, Bassia scoparia; conditions: scored visually after about 3 weeks vs untreated controls (100% = plants have died)
Excerpt: 1. Pre-Emergence Herbicidal Effect and Crop Plant Compatibility a) Seeds of mono- and dicotyledonous weed plants are placed in plastic pots in sandy loam soil (doubly sown with one species each of mono- or dicotyledonous weed plants per pot) and covered with soil. The compounds of the invention, formulated in the form of wettable powders (WP) or as emulsion concentrates (EC), are then applied onto the surface of the covering soil as aqueous suspension or emulsion with addition of 0.5% additive at a water application rate equivalent to 600 litres per hectare. After the treatment, the pots are placed in a greenhouse and kept under good growth conditions for the trial plants. After about 3 weeks, the effect of the preparations is scored visually in comparison with untreated controls as percentages. For example, 100% activity=the plants have died, 0% activity=like control plants. 1. Pre-Emergence Effectiveness Tables 1 to 12 below show the effects of selected compounds of the general formula (I) according to Tables 1 and 2 on various harmful plants and at an application rate corresponding to 1280 g/ha, which were obtained by the experimental procedure mentioned above.

MATIN [9] = test: Pre-emergence action against MATIN, 1280 g/ha; assay type: in vivo, Tripleurospermum inodorum (Matricaria inodora); conditions: scored visually after about 3 weeks vs untreated controls (100% = plants have died)
Outline: as §1

STEME [10] = test: Pre-emergence action against STEME, 1280 g/ha; assay type: in vivo, Stellaria media; conditions: scored visually after about 3 weeks vs untreated controls (100% = plants have died)
Outline: as §1

VERPE [11] = test: Pre-emergence action against VERPE, 1280 g/ha; assay type: in vivo, Veronica persica; conditions: scored visually after about 3 weeks vs untreated controls (100% = plants have died)
Outline: as §1

ALOMY [12] = test: Post-emergence action against ALOMY, 1.28 kg/ha; assay type: in vivo, Alopecurus myosuroides; conditions: dosage 1280 g/ha, visual rating about 3 weeks after treatment vs untreated controls
Outline: (§2)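 Spray at one-leaf stage with WP/EC + 0.5% additive, 600 L water/ha. Greenhouse, optimum conditions, ~3 wk. Visual % control vs untreated; 0 = no effect, 100 = dead.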

DIGSA [13] = test: Post-emergence action against DIGSA, 1.28 kg/ha; assay type: in vivo, Digitaria sanguinalis; conditions: dosage 1280 g/ha, visual rating about 3 weeks after treatment vs untreated controls
Outline: as §2

ECHCG [14] = test: Post-emergence action against ECHCG, 1.28 kg/ha; assay type: in vivo, Echinochloa crus-galli; conditions: dosage 1280 g/ha, visual rating about 3 weeks after treatment vs untreated controls
Outline: as §2

POAAN [15] = test: Post-emergence action against POAAN, 1.28 kg/ha; assay type: in vivo, Poa annua; conditions: dosage 1280 g/ha, visual rating about 3 weeks after treatment vs untreated controls
Outline: as §2

SETVI [16] = test: Post-emergence action against SETVI, 1.28 kg/ha; assay type: in vivo, Setaria viridis; conditions: dosage 1280 g/ha, visual rating about 3 weeks after treatment vs untreated controls
Outline: as §2

ABUTH = test: Post-emergence action against ABUTH, 1.28 kg/ha; assay type: in vivo, Abutilon theophrasti; conditions: dosage 1280 g/ha, visual rating about 3 weeks after treatment vs untreated controls (100% = plants died)
Outline: as §2

AMARE [17] = test: Post-emergence action against AMARE, 1.28 kg/ha; assay type: in vivo, Amaranthus retroflexus; conditions: dosage 1280 g/ha, visual rating about 3 weeks after treatment vs untreated controls (100% = plants died)
Outline: as §2

KCHSC [18] = test: Post-emergence action against KCHSC, 1.28 kg/ha; assay type: in vivo, Bassia scoparia; conditions: dosage 1280 g/ha, visual rating about 3 weeks after treatment vs untreated controls (100% = plants died)
Outline: as §2

MATIN [19] = test: Post-emergence action against MATIN, 1.28 kg/ha; assay type: in vivo, Tripleurospermum inodorum (Matricaria inodora); conditions: dosage 1280 g/ha, visual rating about 3 weeks after treatment vs untreated controls (100% = plants died)
Outline: as §2

STEME [20] = test: Post-emergence action against STEME, 1.28 kg/ha; assay type: in vivo, Stellaria media; conditions: dosage 1280 g/ha, visual rating about 3 weeks after treatment vs untreated controls (100% = plants died)
Outline: as §2

VERPE [21] = test: Post-emergence action against VERPE, 1.28 kg/ha; assay type: in vivo, Veronica persica; conditions: dosage 1280 g/ha, visual rating about 3 weeks after treatment vs untreated controls (100% = plants died)
Outline: as §2

LOLRI [22] = test: Post-emergence action against LOLRI, 1.28 kg/ha; assay type: in vivo, Lolium rigidum; conditions: dosage 1280 g/ha, visual rating about 3 weeks after treatment vs untreated controls
Outline: as §2

SMILES | Pre-emergence action against ALOMY (ALOMY [1]) | Pre-emergence action against DIGSA (DIGSA [2]) | Pre-emergence action against ECHCG (ECHCG [3]) | Pre-emergence action against LOLRI (LOLRI [4]) | Pre-emergence action against POAAN (POAAN [5]) | Pre-emergence action against SETVI (SETVI [6]) | Pre-emergence action against AMARE (AMARE [7]) | Pre-emergence action against KCHSC (KCHSC [8]) | Pre-emergence action against MATIN (MATIN [9]) | Pre-emergence action against STEME (STEME [10]) | Pre-emergence action against VERPE (VERPE [11]) | Post-emergence action against ALOMY (ALOMY [12]) | Post-emergence action against DIGSA (DIGSA [13]) | Post-emergence action against ECHCG (ECHCG [14]) | Post-emergence action against POAAN (POAAN [15]) | Post-emergence action against AMARE (AMARE [17]) | Post-emergence action against KCHSC (KCHSC [18]) | Post-emergence action against MATIN (MATIN [19]) | Post-emergence action against STEME (STEME [20]) | Post-emergence action against VERPE (VERPE [21]) | further results
O=C(O)C1CCCN1C(=O)COc1nn(-c2ccccc2F)c(-c2ccc(F)nc2)c1Br (stereo not drawn) [Example X-009] | 100% | 90% | 100% | 100% | 100% | 100% | 100% | 90% | 100% | 100% | 100% | 100% | 90% | 100% | 100% | 100% | 90% | 90% | 100% | 100% | Post-emergence action against SETVI (SETVI [16]): 100%; Post-emergence action against ABUTH (ABUTH): 100%
COC(=O)CNC(=O)COc1nn(-c2ccc(F)cc2)c(-c2ccc(F)nc2)c1C(F)(F)F [Example X-020] | 100% | 100% | 100% | 100% | 100% | 100% | 90% | 90% | 90% | 90% | 90% | 100% | – | 100% | 100% | 100% | 100% | 90% | 100% | 100% | Post-emergence action against ABUTH (ABUTH): 90%
O=C(COc1nn(-c2ccc(F)cc2F)c(-c2ccc(F)nc2)c1Br)NO [Example X-028] | 90% | 100% | 100% | 100% | 100% | 100% | 100% | 100% | 100% | 100% | 90% | 100% | – | 100% | 100% | – | 90% | 100% | 90% | 100% | Post-emergence action against SETVI (SETVI [16]): 90%
CCOC(=O)COc1nn(-c2ccccc2F)c(-c2cncnc2)c1[N+](=O)[O-] [VI-005] | 90% | 100% | 90% | 100% | 100% | 100% | 100% | 90% | 100% | 100% | 100% | 90% | – | 90% | 100% | 90% | 90% | 90% | 100% | 90% | Post-emergence action against ABUTH (ABUTH): 90%
COC(=O)[C@@H](C)Oc1nn(-c2ccccc2F)c(-c2cncnc2)c1[N+](=O)[O-] [VI-006] | – | 100% | 100% | 100% | 100% | 100% | 90% | 100% | 100% | 90% | 100% | – | 90% | – | 100% | – | 90% | 100% | 100% | 90% | Post-emergence action against LOLRI (LOLRI [22]): 100%
CCOC(=O)COc1nn(-c2ccc(F)cc2)c(-c2ccc(F)nc2)c1C(F)(F)F [VII-059] | 100% | 100% | 100% | 100% | 100% | 100% | 100% | 100% | 90% | 100% | 100% | 100% | 100% | 100% | 100% | 100% | 100% | 100% | 100% | 90% | Post-emergence action against LOLRI (LOLRI [22]): 100%
O=C(O)COc1nn(-c2ccc(F)cc2)c(-c2ccc(F)nc2)c1Br [VII-095] | 100% | 100% | 100% | 100% | 100% | 100% | 100% | 100% | 90% | 100% | 100% | 100% | 100% | 100% | 100% | 90% | 100% | 100% | 90% | 90% | Post-emergence action against LOLRI (LOLRI [22]): 100%; Post-emergence action against SETVI (SETVI [16]): 100%
CC(Oc1nn(-c2ccccc2F)c(-c2ccc(F)nc2)c1Br)C(=O)O (stereo not drawn) [VII-096] | 100% | 100% | 100% | 100% | 100% | 100% | 100% | 100% | 100% | 100% | 100% | 100% | 100% | 90% | 100% | 100% | 90% | 90% | 100% | 90% | Post-emergence action against SETVI (SETVI [16]): 90%
